Several values for one entry are separate records, joined by “and”; a condition that tells them apart may be missing. Equal values may be shown once.
Key:
Type in all cases: in vivo, human
[1] = tested on: MS subjects with severe fatigue; test: Sequential dose escalation study of fatigue in multiple sclerosis (VAFS, FSS, MFIS, Epworth sleep scale, satiety scale, adverse events); details: for improvement in the MFIS: on-drug vs off-drug
Protocol: Three groups of subjects participated in a sequential dose escalation protocol. All subjects received a fixed dose of carbidopa, 50 mg po bid. […] Tablets of the study drugs were produced by the research pharmacy at the University of Miami. Carbidopa was prepared in 50 mg, and 1-histidine at 250 mg strength. Drug dispensation was carried out by the research pharmacist according to the dosage designated for each group.
Benefits and adverse events were documented and reported to the Data Safety Monitoring Body (DSMB). After approval from the DSMB, group 2 was started. Group 2 received 500 mg po bid of L-histidine. Once again after approval from the DSMB, following the successful completion of group 2, escalation to group 3, namely 1 gm po bid of L-histidine was completed. All subjects agreed to participate with 2 lumbar punctures each a week apart, for collection of cerebrospinal fluid (CSF) for the PK/PD part of the study. Each group required the participation of 3 MS subjects and 1 normal individual. For whatever reason if a subject could not complete the study, the design permitted substitution so every group will have three MS subjects and a normal subject that completed the trial.
After informed consent, subjects were screened at the first visit to meet inclusion/exclusion criteria and baseline laboratory studies were obtained including complete blood counts, comprehensive metabolic panel, thyroid panel, and inventory of health measures, including a complete general examination as well as EKG. Subjects completed questionnaires that included the following: Visual Analogue Fatigue Scale (VAFS), fatigue severity scale (FSS), modified fatigue impact scale (MFIS), Epworth sleep scale, Satiety scale, and Center for Epidemiologic Studies Depression Scale. Within 30 days of their screening visit, subjects returned for their baseline visit. The questionnaires were completed again, and subjects underwent the baseline lumbar puncture for collection of baseline cerebrospinal fluid (CSF).
The study medication for the appropriate group was dispensed and all subjects took the first dose of the study drug during this visit.
(§1) Medications were dispensed for 7 days. On day 8, subjects arrived at the center and received the final dose of the study drug and timed from that dosing for the PK/PD studies.
(§2) Blood samples were collected at drug administration, and every 30 minutes for 4 hours. At 90 minutes the second and final lumbar puncture was completed, and CSF obtained for measurement of L-histidine and histamine. All subjects completed the same questions to determine the effects of the treatment on fatigue, wakefulness and satiety.
All subjects were recruited from the MS Center at the University of Miami. Subjects who complained of severe and persistent fatigue of duration longer than 6 months were eligible to be screened for the study. During screening inclusion and exclusion criteria were carefully reviewed. To be eligible, a subject needed to have a definite diagnosis of MS by the McDonald International Criteria and severe fatigue with a mean Fatigue Severity Score (FSS) of 5.0 or greater (maximum mean FSS=7.0). Patients with confounding factors such as anemia, untreated hypothyroidism, depression, concomitant medication that caused fatigue were carefully examined and excluded. Use of stimulants and concomitant use of medications for treatment of fatigue such as modafinil was excluded. Use of caffeine was not restricted, but patients were instructed not to change the usage. Pregnant or lactating females were not included in the study. Patients were cautioned not to use over-the-counter medications without approval of the PI during the study, especially medications for sleep or allergies including but not limited to the use of oral steroids or antihistamines with potential to confound the results of the trial.
They were spouses of patients who participated in this trial. […]

[2] = PK/PD: L-histidine levels in plasma and CSF after final dose
Protocol: as §1, §2
On day 7 from the baseline, the end-of-study visit, subjects arrived at the center without taking the last dose, which was administered under supervision and timed for time-zero. Baseline samples of blood for serum and plasma were collected and blood samples were obtained every half-hour for 6 hours.
At 90 minutes post administration a lumbar puncture was performed, and 0.5 ml aliquots of spinal fluid were collected for a total of 5 minutes. Spinal fluid, serum, and plasma were frozen at -80C until analysis for levels of histidine, histamine and metabolomic studies.
L-Histidine and L-Histidine-^13G6 analytical standards (Sigma Aldrich) were prepared in LC-MS grade water with 0.1% formic acid (FA). 25 μL of sample (CSF or blood) or calibration standard was mixed with 75 μL of LC-MS grade water with 0.1% FA and 200 μL of 2.5 μM L-Histidine-^13G6. […]

CSF biochemicals = test: Metabolomics in the cerebrospinal fluid after histidine loading
Description: Four CSF samples from normal subjects (2 before histidine loading and 2 after) and 12 CSF samples from MS patients (6 before and 6 after histidine loading) were examined in this study. The MS samples were evenly distributed from 3 responders and 3 non-responder MS subjects. The dataset comprised a total of 494 biochemicals, 434 known and 60 unknown entities. […] A summary of the biochemicals that achieved significance (p≤0.05) as also those approaching significance (0.05<p<0.10), were examined. All assays also examined estimates of false discoveries (q-value) inherent in estimates that use multiple comparisons. A low q-value (<0.1) gave confidence in a result with a low p value as a potentially meaningful result.

[3] = Group 1: 150 mg po bid of L-histidine and carbidopa 50 mg po bid, one individual
[4] = Group 2: 500 mg po bid of L-histidine and carbidopa 50 mg po bid, single subject
[5] = Group 2 responder, 500 mg po bid of L-histidine and carbidopa 50 mg po bid
[6] = short exposure to the study drug
[7] = following histidine loading, lower prior to loading
[8] = responder population after histidine loading, FIG. 8

time after which plasma L-histidine levels became undetectable ([2]; human, in vivo): > 4 h
time of peak levels of L-histidine in the plasma ([2]; plasma, after final dose, FIG. 5A, 500 mg carbidopa arm): 2 h
Compound: N[C@@H](Cc1c[nH]cn1)C(=O)O [L-histidine]
adverse events ([1]; Group 1: 150 mg po bid of L-histidine and carbidopa 50 mg po bid): No adverse events were reported
response in fatigue scales (VAFS, FSS, MFIS) [1, 3]: improved fatigue scores in all three fatigue scales
improvement in the MFIS [1, 3]: 30%
response in fatigue scales (VAFS, FSS, MFIS) [1, 4]: improvement in all 3 fatigue scales
improvement in the MFIS [1, 4]: 81%
cognition (written narrative) [1, 5]: able to think clearly, have better focus, and improved cognition
libido and sexual activity (written narrative) [1, 5]: Remarkable improvement of libido and sexual activity
overall quality of life (written narrative) [1, 5]: marked improvement in overall quality of life
relief from fatigue (written narratives) ([1]; Group 3: L-histidine 1 gm po bid and carbidopa 50 mg po bid): The relief from fatigue was complete
response in fatigue scales (VAFS, FSS, MFIS) ([1]; Group 3: L-histidine 1 gm po bid and carbidopa 50 mg po bid, MS subjects): three of the three MS subjects noticed remarkable improvement
improvements of MFIS better than off-drug scores ([1]; Group 3: L-histidine 1 gm po bid and carbidopa 50 mg po bid, three MS subjects, one value each): 69% and 74% and 82%
day on which subjects noticed the change ([1]; all subjects who noted improvement, at whatever dose, response sustained until study drug discontinued): ~2 days
adverse events ([1]; normal subjects): Nor did they experience any adverse events
benefit from the study drug ([1]; normal subjects (no MS, no fatigue)): did not notice any benefit
subset scores of MSFC (post-hoc examination) ([1]; responders, physical, cognitive and psychosocial domains): improvement of all three domains, physical, cognitive and psychosocial
change in satiety scale [1, 6]: A change in satiety scale was not recorded
change in weight [1, 6]: A change in weight was also not recorded
Epworth Sleep Scale (ESS) on study drug ([1]; single fatigue responder with ESS over 10, dropped from 13): 6
reported adverse events ([1]; whole study, all groups): few and related to the lumbar punctures or unrelated intercurrent infections
Histamine levels in the CSF (CSF biochemicals; FIG. 7): below the level of detection sensitivity
Histidine levels in CSF after loading (CSF biochemicals; MS patients and normal subjects, FIG. 7): increased after loading similarly in MS patients and normal subjects
Deoxycarnitine in CSF (CSF biochemicals; after histidine loading): increased
NAA levels in CSF (CSF biochemicals; after histidine loading): increased
Carnosine and homocarnosine levels in CSF (CSF biochemicals; after histidine loading, FIG. 7): did not change significantly
levels of carnosine and homocarnosine (CSF biochemicals; after the intervention (concluding statement)): increases the levels
Acetoacetate in CSF (CSF biochemicals; [7]): increased following histidine loading
beta hydroxybutyrate in CSF (CSF biochemicals; [7]): increased following histidine loading
cis-aconitate in CSF (CSF biochemicals; post dosing, MS subjects): increases were observed
citrate in CSF (CSF biochemicals; post dosing, MS subjects): increases were observed
Creatine phosphate in CSF (CSF biochemicals; [8]): increased
N-acetylaspartate (NAA) in CSF (CSF biochemicals; [8]): increased

— US20240050413A1, “COMPOSITIONS AND METHODS FOR TREATING MULTIPLE SCLEROSIS AND ALLEVIATING FATIGUE” (University of Miami, priority 2020, published 2024)
